What was measured:
[1] = tested on: breast cancer MCF-7 cell line; experiment: MTT cytotoxicity against breast cancer MCF-7 cell line; format: cell-based; settings: MTT assay, 24 h drug treatment
Protocol: Compounds 2–5d were evaluated for their cytotoxic activities against breast cancer MCF-7 cell line by using an MTT colorimetric assay. Cisplatin was used as reference drug in this study. […] Additionally, the therapeutic safety of N-(3-hydroxy-4-methoxy) aryl amide derivative 4e was determined by screening its cytotoxic activity against normal breast cell line (MCF-10A) using an MTT colorimetric assay. […]
(§1) Cytotoxic activity of the newly prepared acrylamide derivatives 2–5d were carried out against breast MCF-7 cancer cell line using the MTT assay method. Compound 4e was screened for its effects on normal breast cell line MCF-10A. Cells at density of 1 × 10^4 were seeded in a 96-well plate at 37 °C for 48 h under 5% CO2. After incubation, the cells were treated with different concentrations of the test compounds and incubated for 24 h. After 24 h of drug treatment, 20 μL of MTT solution at 5 mg/mL was applied and incubated for 4 h at 37 °C. Dimethyl sulphoxide (DMSO) in volume of 100 µL was added to each well to dissolve the purple formazan that had formed. The color intensity of the formazan product, which represents the growth condition of the cells, is quantified by using an ELISA plate reader (EXL 800, USA) at 570 nm absorbance. The experimental conditions were carried out with at least three replicates, and the experiments were repeated at least three times.

[2] = tested on: normal breast cell line (MCF-10A); experiment: MTT cytotoxicity against normal breast cell line MCF-10A; format: cell-based; settings: MTT assay
Protocol: Compounds 2–5d were evaluated for their cytotoxic activities against breast cancer MCF-7 cell line by using an MTT colorimetric assay. Cisplatin was used as reference drug in this study. […] Additionally, the therapeutic safety of N-(3-hydroxy-4-methoxy) aryl amide derivative 4e was determined by screening its cytotoxic activity against normal breast cell line (MCF-10A) using an MTT colorimetric assay.
as §1

MCF-7 cells = experiment: Cell cycle analysis by DNA flow cytometry; format: cell-based; settings: MCF-7, 48 h, 4e at IC50 (2.11 μM), PTX 0.1 μM
Protocol: In order to study the mechanism of the cytotoxic activity of compound 4e, cell cycle analysis was investigated in breast cancer MCF-7 cells by DNA flow cytometry analysis at IC50 dose values of compound 4e for 48 h. Paclitaxel (PTX, 0.1 μM) was used as the reference drug in this study.
MCF-7 cells (2 × 10^5/well) were harvested and washed twice in PBS. After that, the cells were incubated at 37 °C and 5% CO2. The medium was replaced with DMSO 1% v/v containing the tested compound 4e (2.11 μM) and PTX (0.1 μM), then incubated for 48 h, washed twice in PBS, fixed with 70% ethanol, rinsed again with PBS and then stained with DNA fluorochrome PI for 15 min at 37 °C. The samples were analyzed by flow cytometry on a FACS Calibur flow cytometer (Becton and Dickinson, Heidelberg, Germany).

β-tubulin = β-tubulin inhibition percentage by ELISA (tubulin polymerization inhibition); format: biochemical; settings: 5 μM concentration
tubulin assembly = tested on: tubulin assembly; set-up: method as in PMID 25721862; settings: cited from earlier work

Structure (SMILES) | melting point | IC50 ([1]; Homo sapiens, MCF7, 24 h) | also measured
COc1ccc(NC(=O)C(=Cc2ccco2)NC(=O)c2cc(OC)c(OC)c(OC)c2)cc1 [Compound 4c, N-[1-(Furan-2-yl)-3-(4-methoxyphenylamino)-3-oxoprop-1-en-2-yl]-3,4,5-trimethoxybenzamide] | 249 to 251 °C | 26.2 ± 1.21 µM | 
COc1cc(C(=O)NC(=Cc2ccco2)C(=O)NC(C)C)cc(OC)c1OC [Compound 3, N-[1-(Furan-2-yl)-3-(isopropylamino)-3-oxoprop-1-en-2-yl]-3,4,5-trimethoxybenzamide] | 168 to 170 °C | 4.73 ± 0.27 µM | 
COc1cc(C(=O)NC(=Cc2ccco2)C(=O)NCc2cccc(C)c2)cc(OC)c1OC [Compound 5a, N-[1-(Furan-2-yl)-3-((3-methylbenzyl)amino)-3-oxoprop-1-en-2-yl]-3,4,5-trimethoxybenzamide] | 175 to 177 °C | 3.92 ± 0.21 µM | 
COc1cc(C(=O)NC(=Cc2ccco2)C(=O)Nc2ccccc2C)cc(OC)c1OC [Compound 4a, N-[1-(Furan-2-yl)-3-oxo-3-(o-tolylamino)prop-1-en-2-yl]-3,4,5-trimethoxybenzamide] | 222 to 224 °C | 27.3 ± 1.21 µM | 
N.N.[Cl][Pt][Cl] [Cisplatin, reference compound] |  |  | IC50 [2]: 22.62 ± 0.19 µM; IC50 [1]: 1.02 ± 0.12 µM
COc1ccc(NC(=O)C(=Cc2ccco2)NC(=O)c2cc(OC)c(OC)c(OC)c2)cc1O [Compound 4e, N-[1-(Furan-2-yl)-3-(3-hydroxy-4-methoxyphenylamino)-3-oxoprop-1-en-2-yl]-3,4,5-trimethoxybenzamide] |  | 2.11 ± 0.19 µM | percentage of cells in pre-G1 phase (MCF-7 cells; untreated control 1.73%): 24.62%; percentage of cells in G2/M phase (MCF-7 cells; untreated control 8.39%): 42.50%; IC50 ([2]; Homo sapiens): 29.3 ± 1.21 µM; β-tubulin inhibition percentage (β-tubulin): 89%
COc1cc(C(=O)NC(=Cc2ccco2)C(=O)Nc2ccc(O)cc2)cc(OC)c1OC [Compound 4d, N-[1-(Furan-2-yl)-3-(4-hydroxyphenylamino)-3-oxoprop-1-en-2-yl]-3,4,5-trimethoxybenzamide] | 214 to 216 °C | 18.4 ± 1.14 µM | 
COc1ccc(C(=O)/C=C/c2cc(C(=O)c3cc(OC)c(OC)c(OC)c3)ccc2OC)cc1N [Compound IV] |  |  | IC50 (tubulin assembly): 0.6 µM
COc1ccccc1CNC(=O)C(=Cc1ccco1)NC(=O)c1cc(OC)c(OC)c(OC)c1 [Compound 5b, N-[1-(Furan-2-yl)-3-((2-methoxybenzyl)amino)-3-oxoprop-1-en-2-yl]-3,4,5-trimethoxybenzamide] | 166 to 168 °C | 5.03 ± 1.01 µM | 
CCOC(=O)C(=Cc1ccco1)NC(=O)c1cc(OC)c(OC)c(OC)c1 [Compound 2, Ethyl 3-(Furan-2-yl)-2-(3,4,5-trimethoxybenzamido)acrylate] | 126 to 128 °C | > 50 µM | 
COc1ccc(CNC(=O)C(=Cc2ccco2)NC(=O)c2cc(OC)c(OC)c(OC)c2)cc1OC [Compound 5d, N-[3-((3,4-Dimethoxybenzyl)amino)-1-(furan-2-yl)-3-oxoprop-1-en-2-yl]-3,4,5-trimethoxybenzamide] | 124 to 126 °C | 2.61 ± 0.32 µM | 
COc1cccc(CNC(=O)C(=Cc2ccco2)NC(=O)c2cc(OC)c(OC)c(OC)c2)c1 [Compound 5c, N-[1-(Furan-2-yl)-3-(3-methoxybenzylamino)-3-oxoprop-1-en-2-yl]-3,4,5-trimethoxybenzamide] | 164 to 166 °C | 2.61 µM | IC50 [1]: 3.03 ± 0.39 µM
COc1cc(C(=O)NC(=Cc2ccco2)C(=O)Nc2cccc(C)c2)cc(OC)c1OC [Compound 4b, N-[1-(Furan-2-yl)-3-oxo-3-(m-tolylamino)prop-1-en-2-yl]-3,4,5-trimethoxybenzamide] | 217 to 219 °C | 10.4 ± 1.09 µM | 

From publication PMC8540948, “Design and Synthesis of Newly Synthesized Acrylamide Derivatives as Potential Chemotherapeutic Agents against MCF-7 Breast Cancer Cell Line Lodged on PEGylated Bilosomal Nano-Vesicles for Improving Cytotoxic Activity” (Pharmaceuticals, 2021)
